Literature values, collected in PubChem BioAssay AID1259409 (Chemical Carcinogenesis Research Information System (CCRIS), 2018).

System: rodent chemically induced tumor inhibition, incidence and multiplicity
Assay: CCRIS tumor inhibitor studies
Conditions: Route [Inhibitor]: ORAL, Species: RAT, Promoter: NONE USED

CC1=C(/C=C/C(C)=C/C=C/C(C)=C/C(=O)NCCO)C(C)(C)CCC1
tumour outcome (control, treated, inhibition, significance) (Carcinogen: 1,2-DIMETHYLHYDRAZINE, 540-73-8, Dose [Inhibitor]: 2 MMOL/KG DIET DAILY STARTING 12 D AFTER CARCINOGEN TREATMENT THROUGH ABOUT 8 MO AFTER CARCINOGEN DOSE (STUDY DURATION:, Strain/Sex: F344/MALE, Target Tissue: Type of Lesion: COLON: ADENOCARCINOMA, Dose [Carcinogen]: 150 MG/KG BW ONCE): 10/39 (26%), 5/30 (17%), 35%, not significant
tumour outcome (control, treated, inhibition, significance) (Carcinogen: 1,2-DIMETHYLHYDRAZINE, 540-73-8, Dose [Inhibitor]: 2 MMOL/KG DIET DAILY STARTING 12 D AFTER CARCINOGEN TREATMENT THROUGH ABOUT 8 MO AFTER CARCINOGEN DOSE (STUDY DURATION:, Strain/Sex: F344/MALE, Target Tissue: Type of Lesion: COLON: ADENOMA, Dose [Carcinogen]: 150 MG/KG BW ONCE): 23/39 (59%), 11/30 (37%), 37%, not significant
tumour outcome (control, treated, inhibition, significance) (Carcinogen: L-AZASERINE, 115-02-6, Dose [Inhibitor]: 1 MMOL/KG DIET DAILY FOR 358 D STARTING 1 WK AFTER COMPLETION OF CARCINOGEN TREATMENT (STUDY DURATION: 66 WK), Strain/Sex: WISTAR-LEWIS/FEMALE, Target Tissue: Type of Lesion: PANCREAS: ADENOMA, Dose [Carcinogen]: 10 MG/KG BW 1/WK FOR 15 WK): 50%, 25%, 50%, not significant
tumour outcome (control, treated, inhibition, significance) (Carcinogen: L-AZASERINE, 115-02-6, Dose [Inhibitor]: 1 MMOL/KG DIET DAILY FOR 358 D STARTING 1 WK AFTER COMPLETION OF CARCINOGEN TREATMENT (STUDY DURATION: 66 WK), Strain/Sex: WISTAR-LEWIS/FEMALE, Target Tissue: Type of Lesion: PANCREAS: CARCINOMA IN SITU, Dose [Carcinogen]: 10 MG/KG BW 1/WK FOR 15 WK): 8%, 25%, -213%, not calculated
tumour outcome (control, treated, inhibition, significance) (Carcinogen: L-AZASERINE, 115-02-6, Dose [Inhibitor]: 1 MMOL/KG DIET DAILY FOR 358 D STARTING 1 WK AFTER COMPLETION OF CARCINOGEN TREATMENT (STUDY DURATION: 66 WK), Strain/Sex: WISTAR-LEWIS/FEMALE, Target Tissue: Type of Lesion: PANCREAS: CARCINOMA, Dose [Carcinogen]: 10 MG/KG BW 1/WK FOR 15 WK): 13%, 0%, 100%, not significant
tumour outcome (control, treated, inhibition, significance) (Carcinogen: L-AZASERINE, 115-02-6, Dose [Inhibitor]: 1 MMOL/KG DIET DAILY FOR 358 D STARTING 1 WK AFTER COMPLETION OF CARCINOGEN TREATMENT (STUDY DURATION: 66 WK), Strain/Sex: WISTAR-LEWIS/FEMALE, Target Tissue: Type of Lesion: PANCREAS: NEOPLASM, Dose [Carcinogen]: 10 MG/KG BW 1/WK FOR 15 WK): 71%, 50%, 30%, p 0.14
tumour outcome (control, treated, inhibition, significance) (Carcinogen: L-AZASERINE, 115-02-6, Dose [Inhibitor]: 1 MMOL/KG DIET DAILY FOR 358 D STARTING 1 WK AFTER COMPLETION OF CARCINOGEN TREATMENT (STUDY DURATION: 66 WK), Strain/Sex: WISTAR-LEWIS/MALE, Target Tissue: Type of Lesion: PANCREAS: ADENOMA, Dose [Carcinogen]: 10 MG/KG BW 1/WK FOR 15 WK): 25%, 56%, -124%, not calculated
tumour outcome (control, treated, inhibition, significance) (Carcinogen: L-AZASERINE, 115-02-6, Dose [Inhibitor]: 1 MMOL/KG DIET DAILY FOR 358 D STARTING 1 WK AFTER COMPLETION OF CARCINOGEN TREATMENT (STUDY DURATION: 66 WK), Strain/Sex: WISTAR-LEWIS/MALE, Target Tissue: Type of Lesion: PANCREAS: CARCINOMA IN SITU, Dose [Carcinogen]: 10 MG/KG BW 1/WK FOR 15 WK): 29%, 28%, 3%, not significant
tumour outcome (control, treated, inhibition, significance) (Carcinogen: L-AZASERINE, 115-02-6, Dose [Inhibitor]: 1 MMOL/KG DIET DAILY FOR 358 D STARTING 1 WK AFTER COMPLETION OF CARCINOGEN TREATMENT (STUDY DURATION: 66 WK), Strain/Sex: WISTAR-LEWIS/MALE, Target Tissue: Type of Lesion: PANCREAS: CARCINOMA, Dose [Carcinogen]: 10 MG/KG BW 1/WK FOR 15 WK): 46%, 8%, 83%, p<0.05
tumour outcome (control, treated, inhibition, significance) (Carcinogen: L-AZASERINE, 115-02-6, Dose [Inhibitor]: 1 MMOL/KG DIET DAILY FOR 358 D STARTING 1 WK AFTER COMPLETION OF CARCINOGEN TREATMENT (STUDY DURATION: 66 WK), Strain/Sex: WISTAR-LEWIS/MALE, Target Tissue: Type of Lesion: PANCREAS: NEOPLASM, Dose [Carcinogen]: 10 MG/KG BW 1/WK FOR 15 WK): 100%, 92%, 8%, not significant
tumour outcome (control, treated, inhibition, significance) (Carcinogen: L-AZASERINE, 115-02-6, Dose [Inhibitor]: 2.0 MMOL/KG DIET DAILY FOR 336 D OUT OF 358 D STARTING 1 WK AFTER COMPLETION OF CARCINOGEN TREATMENT (STUDY DURATION: 66, Strain/Sex: WISTAR-LEWIS/FEMALE, Target Tissue: Type of Lesion: PANCREAS: NEOPLASM (ADENOMA, CARCINOMA IN SITU, CARCINOMA), Dose [Carcinogen]: 10 MG/KG BW 1/WK FOR 15 WK STARTING 15 WK PRIOR TO AGENT TREATMENT): ?/24 (71%), ?/24 (25%), 65%, p<0.05
